From paper PMC10745497, “The Discovery of Indole-2-carboxylic Acid Derivatives as Novel HIV-1 Integrase Strand Transfer Inhibitors” (Molecules, 2023)
Read-outs that look alike come from different tables or passages of the source.

Legend:
[1] = Cytotoxicity assay (MTT) on MT-4 cells; type: cell-based, human; settings: human, five days, read-out: CC50, concentration that inhibits the proliferation of MT-4 cells by 50%
Protocol: (§1) The cytotoxicity of the title compounds was tested through MTT analysis on MT-4 cells. Cells were seeded in 96-well plates with a density of 50,000 cells/well and coincubated with serial diluted compounds (2.5, 5, 10, 20, 40, and 80 μM) at 37 °C for five days. MTT (Sigma) was then added to each well to a final concentration of 0.5 mg/mL and incubated for 2 h. Subsequently, the medium was decanted, and 150 μL of DMSO was added to each well. The absorbance was obtained using a microplate reader at 570 nm, and all measurements were conducted three times under the same condition. Finally, 50% cytotoxicity concentration (CC50) values were calculated by Graphpad Prism 8.

HIV-1 integrase = target: T1, HIV-1 integrase (Human immunodeficiency virus type 1 group M subtype B, UniProt P04585); experiment: Strand transfer inhibition assay (HIV-1 integrase assay kit); type: biochemical; settings: for IC50: average of three independent experiments; for Improvement of integrase inhibitory activity over the parent compound 3: ratio of IC50s versus compound 3
T1 construct: purchased Abnova
Protocol: The strand transfer assay was performed using an HIV-1 integrase assay kit (Abnova, Taipei, CN) according to the manufacturer’s instructions. Each sample was dissolved in DMSO and diluted to a final desired concentration (80, 40, 20, 10, 5 μM) with reaction buffer. Briefly, 100 μL of DS DNA solution was added to each well and incubated for 30 min at 37 °C, and the liquid was removed from the wells and washed 3 times with wash buffer. Then, 200 μL of blocking buffer was added to each well and incubated for 30 min in a 37 °C incubator. Followed by the aspiration of the liquid, each well was washed 3 times with reaction buffer, and 100 μL integrase enzyme solution was added to each well and incubated under similar conditions. Sequentially, 50 μL reaction buffer containing different concentrations of samples was added to each well and incubated for 5 min at room temperature. To each well was added 50 μL of TS DNA solution, and the reactions were mixed gently and incubated for 30 min at 37 °C. Then, each well was washed 3 times with wash solution, incubated with 100 μL HRP antibody and incubated for 30 min at 37 °C. After washing the plate under the same conditions, 100 μL TMB peroxidase substrate solution was added to each well and incubated at room temperature for 10 min. To terminate the reaction, 100 μL TMB stop solution was directly added to each well and the absorbance of the sample was determined using a plate reader (ELx800UV, Bio-Tek Instrument Inc., Winooski, VT, USA) at 450 nm.

MT-4 cells = experiment: Cytotoxicity assay (MTT) on MT-4 cells; type: cell-based, human; settings: five days, read-out: CC50, concentration that inhibits the proliferation of MT-4 cells by 50%
Protocol: as §1

[2] = read-out: IC50, concentration required to inhibit the in vitro strand-transfer step of integrase by 50%
[3] = IC50, concentration required to inhibit the in vitro strand-transfer step of integrase by 50%

| Structure (SMILES) | melting point [°C] | CC50 at 5 days [1] [µM] | IC50 (HIV-1 integrase; [2]) [µM] | IC50 (HIV-1 integrase; [3]) [µM] | Improvement of integrase inhibitory activity over the parent compound 3 (HIV-1 integrase) [fold] | CC50 (MT-4 cells) [µM] |
| --- | --- | --- | --- | --- | --- | --- |
| COc1ccc(Nc2ccc3c(COCc4ccccc4F)c(C(=O)O)[nH]c3c2)cc1F [Compound 20a, 6-((3-fluoro-4-methoxyphenyl)amino)-3-(((2-fluorobenzyl)oxy)methyl)-1H-indole-2-carboxylic acid] | 169.9 to 173.7 | > 80 | 0.13 ± 0.02 |  |  |  |
| CC(C)OC(=O)c1[nH]c2cc(Nc3ccc(F)cc3F)ccc2c1COCc1ccc(C(F)(F)F)cc1 [Compound 16b, Isopropyl 6-((2,4-difluorophenyl)amino)-3-(((4-(trifluoromethyl)benzyl)oxy)methyl)-1H-indole-2-carboxylate] | 149.7 to 152.5 | > 80 | 1.06 ± 0.25 |  |  |  |
| Cc1c2c(=O)n(-c3nc4ccccc4s3)n(Cc3ccccc3)c2cc(=O)n1Cc1ccc2c(c1)OCO2 [Compound 10] | 139.9 to 143.6 |  | 22.3 ± 0.43 |  |  |  |
| COc1ccc2[nH]c(C(=O)O)c(CC(=O)O)c2c1 [Compound 3] | 159.7 to 163.2 |  | 12.41 ± 0.07 |  |  |  |
| Cc1ccc(CNC(=O)CCS(=O)(=O)c2ccc3c(c2)CCN3C(=O)C2CC2)cc1 [Compound 1] | 173.4 to 175.3 |  | 39.1 ± 1.21 |  |  |  |
| Clc1ccc2c(c1)C(c1ccccc1Cl)=NCc1nnc(CSCc3ccccc3)n1-2 [Compound 5] | 164.7 to 167.8 |  |  | 47.4 ± 1.45 |  |  |
| COc1ccc([C@H]2CC(=O)Nc3c(S(=O)(=O)c4ccccc4)csc32)cc1OC1CCCC1 [Compound 2] | 113 to 116.7 |  | 33 ± 1.29 |  |  |  |
| O=c1c2cc(N3CCOCC3)ccc2nc(SCc2cc(=O)n3cc(Cl)ccc3n2)n1Cc1ccc2c(c1)OCO2 [Compound 9] | 239 to 240.1 |  | 32.8 ± 0.83 |  |  |  |
| COc1ccc(Nc2ccc3c(COCc4ccc(C(F)(F)F)cc4)c(C(=O)OC(C)C)[nH]c3c2)cc1F [Compound 16a, Isopropyl 6-((3-fluoro-4-methoxyphenyl)amino)-3-(((4-(trifluoromethyl)benzyl)oxy)methyl)-1H-indole-2-carboxylate] | 142.3 to 145.6 | > 80 | 3.47 ± 0.82 |  |  |  |
| O=C(/C=C/c1ccc2c(c1)OCO2)C[C@@]1(O)C(=O)N(Cc2ccc(Cl)cc2)c2ccccc21 [Compound 7] | 147 to 148.2 |  | 21.4 ± 0.26 |  |  |  |
| Cc1nnc(C(=O)NC(C)(C)c2nc(C(=O)NCc3ccc(F)cc3)c(O)c(=O)n2C)o1 [RAL, raltegravir, reference compound] |  | > 80 |  |  |  |  |
| O=C(O)c1[nH]c2cc(Nc3ccc(F)cc3F)ccc2c1COCc1ccccc1F [Compound 20b, 6-((2,4-difluorophenyl)amino)-3-(((2-fluorobenzyl)oxy)methyl)-1H-indole-2-carboxylic acid] | 178.5 to 181.8 | > 80 | 0.64 ± 0.06 |  |  |  |
| COc1ccc(Nc2ccc3c(COCc4ccc(C(F)(F)F)cc4)c(C(=O)O)[nH]c3c2)cc1F [Compound 17a, 6-((3-fluoro-4-methoxyphenyl)amino)-3-(((4-(trifluoromethyl)benzyl)oxy)methyl) -1H-indole-2-carboxylic acid] | 134.8 to 136.3 | > 80 | 0.93 ± 0.07 |  |  |  |
| COc1cc(OC)c([C@H]2c3c(oc4ccc(Cl)cc4c3=O)C(=O)N2c2cc(C)on2)cc1OC [Compound 4] | 271.4 to 279 |  | 18.5 ± 1.06 |  |  |  |
| O=C(NCc1ccc(F)cc1)c1coc(CN(Cc2ccc3c(c2)OCO3)Cc2ccc3c(c2)OCO3)n1 [Compound 8] | 171.5 to 176.8 |  | 28.2 ± 1.07 |  |  |  |
| O=C(NC1CCCC1)c1ccc2c(=O)n(Cc3ccco3)c(=O)n(Cc3cccc([N+](=O)[O-])c3)c2c1 [Compound 6] | 235.3 to 241.2 |  | 22.6 ± 0.58 |  |  |  |
| CC(C)OC(=O)c1[nH]c2cc(Br)ccc2c1COCc1ccc(C(F)(F)F)cc1 [Compound 15, Isopropyl 6-bromo-3-(((4-(trifluoromethyl)benzyl)oxy)methyl)-1H-indole-2-carboxylate] |  | > 80 |  | 2.34 ± 0.31 | 5.3 |  |
| O=C(O)c1[nH]c2cc(Br)ccc2c1COCc1ccccc1F [Compound 21, 6-bromo-3-(((2-fluorobenzyl)oxy)methyl)-1H-indole-2-carboxylic acid] | 174.3 to 178 | > 80 | 6.85 ± 0.66 |  |  |  |
| CC(C)OC(=O)c1[nH]c2cc(Nc3ccc(F)cc3F)ccc2c1COCc1ccccc1F [Compound 19b, Isopropyl 6-((2,4-difluorophenyl)amino)-3-(((2-fluorobenzyl)oxy)methyl)-1H-indole-2-carboxylate] | 171.8 to 175.3 | > 29 | 1.7 ± 0.15 |  |  | 29.4 ± 1.76 |
| O=C(O)c1[nH]c2cc(Nc3ccc(F)cc3F)ccc2c1COCc1ccc(C(F)(F)F)cc1 [Compound 17b, 6-((2,4-difluorophenyl)amino)-3-(((4-(trifluoromethyl)benzyl)oxy)methyl)-1H-indole-2-carboxylic acid] | 157.3 to 160.5 | > 80 | 0.39 ± 0.09 |  |  |  |
| CC(C)OC(=O)c1[nH]c2cc(Br)ccc2c1COCc1ccccc1F [Compound 18, Isopropyl 6-bromo-3-(((2-fluorobenzyl)oxy)methyl)-1H-indole-2-carboxylate] | 154.6 to 158.9 | > 29 |  | 1.92 ± 0.07 | 6.5 | 45.3 ± 2.73 |
| COc1ccc(Nc2ccc3c(COCc4ccccc4F)c(C(=O)OC(C)C)[nH]c3c2)cc1F [Compound 19a, Isopropyl 6-((3-fluoro-4-methoxyphenyl)amino)-3-(((2-fluorobenzyl)oxy)methyl)-1H-indole-2-carboxylate] | 141.2 to 144.5 | > 29 | 1.05 ± 0.32 |  |  | 37.6 ± 3.64 |
